In patent publication US7189851B2, “Condensed heterocyclic compounds as calcitonin agonists” (SmithKline Beecham Corporation, priority 2002, dated 2007) one finds EC50 data, which are given here for 18 compounds.

The experiment deals with T1, human calcitonin-2 receptor (hCT2R) (Homo sapiens, UniProt P30988).
T1 construct: expressed in transfected cells; host or cells: Chinese hamster ovary (CHO) cells co-transfected with a 6CRE-luciferase reporter; receptor cDNA cloned from the MCF7 cell line
T1 sequence (P30988 25-474): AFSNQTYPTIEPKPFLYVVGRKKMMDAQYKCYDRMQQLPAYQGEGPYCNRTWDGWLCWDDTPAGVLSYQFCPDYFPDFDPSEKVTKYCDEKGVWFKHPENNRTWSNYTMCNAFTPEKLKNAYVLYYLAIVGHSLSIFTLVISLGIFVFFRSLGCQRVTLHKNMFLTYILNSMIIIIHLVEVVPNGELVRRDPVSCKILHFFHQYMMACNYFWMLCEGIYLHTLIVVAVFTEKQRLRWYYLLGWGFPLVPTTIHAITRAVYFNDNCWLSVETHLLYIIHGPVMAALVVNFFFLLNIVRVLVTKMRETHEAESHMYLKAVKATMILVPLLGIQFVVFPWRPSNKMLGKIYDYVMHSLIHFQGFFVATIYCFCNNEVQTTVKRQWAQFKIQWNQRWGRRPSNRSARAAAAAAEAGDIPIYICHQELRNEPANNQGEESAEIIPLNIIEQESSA
The experiment in a line: HCT2R CRE-luc reporter assay. In kind it is cell-based. Particulars: agonist activity; CHO-6CRE-luciferase cells co-transfected with hCT2R. How it is done: The compounds of the present invention elicit important and measurable pharmacological responses. As is to be expected, the efficacy of any compound will vary depending upon the particular assay and the particular compound tested.
All recombinant cell line human calcitonin receptor assays were carried out with the human receptor corresponding to GeneBank Accession Number X69920, [See: Molecular Pharmacology 46 (2):246–255, 1994, Cloning and characterization of an abundant subtype of the human calcitonin receptor] cloned from the MCF7 cell line (American Type Tissue Collection, Manassas, Va., USA, Catalog # HTB-22). Human calcitonin receptor (hCT2R) was cloned as a HindIII fragment into plasmid BS SKII. Chinese hamster ovary cells were co-transfected with a 6CRE-luciferase reporter system and hCTR2. HEK cells were transfected with hCTR2.
CHO-6CRE-luciferase cells with or without co-expressed hCTR2 were grown in suspension in commercially available cell culture medium supplemented with 2 mM L-glutamine and 5% fetal bovine serum (FBS). Sixteen hours before each assay, cells were collected and resuspended at 1,000,000 cells/ml in media without FBS. Cells were cultured in spinner flasks at 37° C. in an atmosphere of 5% CO2. At the time of the assay, cells were pelleted by centrifugation and resuspended in media without FBS at a concentration of 250,000 cells/ml. The cell suspension was pipetted into black 96-well microtiter plates (25,000 cells/well) containing test compounds. After a four-hour incubation at 37° C., media was aspirated, followed by addition of 50 microliters of LucLite and PBS (1:1) containing 1 mM CaCl2 and 1 mM MgCl2. The plates were sealed and incubated for 20 minutes in the dark. Luminescent responses were measured using a Packard TopCount.
Structure activity studies were performed on CHO-6CRE-luciferase cells with or without co-transfected hCT2R. Forty-eight hours before each assay, cells were removed with trypsin and plated in 96-well microtiter plates at a concentration of 25–100,000 cells/well. Sixteen hours before each assay, FBS-containing media was removed and replaced with media without FBS. Compounds were added and incubated for four hours at 37° C. After incubation, media was aspirated and 50 microliters of LucLite in PBS (1:1) containing 1 mM CaCl2 and 1 mM MgCl2 were added to each well. Plates were sealed and incubated for 20 minutes in the dark before quantification of luminescence on a Packard TopCount.
Concentration-response curves were calculated and potencies were reported as the concentration of compounds producing half-maximal responses (EC50) or the negative log of the concentration of compounds producing half-maximal responses (pEC50).
For orientation: In a reporter assay the amount or activity of a reporter protein is the signal.
With `CCOC(=O)c1c(CCc2ccc(C(F)(F)F)cc2)nc2c(c1-c1ccc(CNC(=O)c3cccnc3)s1)C(=O)N1CCC[C@@H]21` [Example 47, Ethyl (9aS)-5-oxo-4-(5-{[(3-pyridinylcarbonyl)amino]methyl}-2-thienyl)-2-{2-[4-(trifluoromethyl)phenyl]ethyl}-7,8,9,9a-tetrahydro-5H-pyrido[2,3-α]pyrrolizine-3-carboxylate], the half-maximal effective concentration (EC50) – broadly, the concentration needed to bring the measured effect to its halfway point – was 10 to 100 nM.

Consider `CCOC(=O)c1c(CCc2ccc(F)cc2)cc2c(c1-c1ccc(C(=O)OCc3ccccc3)cc1)C(=O)N1CCC[C@@H]21` [Example 48, Ethyl (9bS)-6-{4-[(benzyloxy)carbonyl]phenyl}-8-[2-(4-fluorophenyl)ethyl]-5-oxo-2,3,5,9b-tetrahydro-1H-pyrrolo[2.1-a]isoindole-7-carboxylate], for which the EC50 was at least 1000 nM.

Regarding `CCOC(=O)c1c(CCc2ccc(F)cc2)cc2c(c1-c1ccc(C(=O)O)cc1)C(=O)N1CCC[C@@H]21` [Example 49, 4-{(9bS)-7-(ethoxycarbonyl)-8-[2-(4-fluorophenyl)ethyl]-5-oxo-2,3,5,9b-tetrahydro-1H-pyrrolo[2,1-α]isoindol-6-yl}benzoic acid], the EC50 was at least 1000 nM.

Take `CCOC(=O)c1c(CCc2ccc(F)cc2)cc2c(c1-c1ccc(C(=O)NCc3ccco3)cc1)C(=O)N1CCC[C@@H]21` [Example 50, Ethyl (9bS)-8-[2-(4-flurophenyl)ethyl]-6-(4-{[(2-furylmethyl)amino]carbonyl}phenyl)-5oxo-2,3,5,9b-tetrahydro-1H-pyrrolo[2,1-α]isoindole-7-carboxylate]: the half-maximal effective concentration (EC50) is at least 1000 nM.

As to `CCOC(=O)c1c(Cc2ccsc2)nc2c(c1-c1ccc(C(=O)NCc3ccco3)cc1)C(=O)N1CCCC21` [Example 51, Ethyl (9aS)-4-(4-{[(2-furylmethyl)amino]carbonyl}phenyl)-5-oxo-2-(3-thienylmethyl)-7,8,9,9a-tetrahydro-5H-pyrido[2,3-α]pyrrolizine-3-carboxylate], the 50% effective concentration (EC50) is 100 to 1000 nM.

For `CCOC(=O)c1c(CCc2ccc(F)cc2)nc2c(c1-c1ccc(C(=O)N[C@@H](C)c3ccncc3)c(F)c1)C(=O)N1CCC[C@@H]21` [Example 52, Ethyl (9aS)-2-[2-(4-fluorophenyl)ethyl]-4-[3-fluoro-4-({[(1S)-1-(4-pyridinyl)ethyl]amino}carbonyl)phenyl]-5-oxo-7,8,9,9a-tetrahydro-5H-pyrido[2,3-α]pyrrolizine-3-carboxylate], the EC50 lay within 10 to 100 nM.

Take `CCOC(=O)c1c(CCc2ccc(F)cc2)nc2c(c1-c1ccc(C(=O)N[C@@H]3CCc4ccccc43)cc1[N+](=O)[O-])C(=O)N1CCC[C@@H]21` [Example 53, Ethyl (9aS)-4-(4-{[(1R)-2,3-dihydro-1H-inden-1-ylamino]carbonyl}-2-nitrophenyl)-2-[2-(4-fluorophenyl)ethyl]-5-oxo-7,8,9,9a-tetrahydro-5H-pyrido[2,3-α]pyrrolizine-3-carboxylate]: the 50% effective concentration (EC50) is 10 to 100 nM.

In the case of `CCOC(=O)c1c(Cc2ccc(F)cc2)nc2c(c1-c1cc(C(=O)NCCc3cccs3)cc(C(F)(F)F)c1)C(=O)N1CCC[C@@H]21` [Example 54, Ethyl (9aS)-2-(4-fluorobenzyl)-5-oxo-4-[3-({[2-(2-thienyl)ethyl]amino}carbonyl)-5-(trifluoromethyl)phenyl]-7,8,9,9a-tetrahydro-5H-pyrido[2,3-α]pyrrolizine-3-carboxylate], the EC50 is at least 1000 nM.

`CCOC(=O)c1c(Cc2ccc(F)cc2)nc2c(c1-c1ccc(C(=O)NN3CCc4ccccc43)cc1)C(=O)N1CCC[C@@H]21` [Example 55, Ethyl (9aS)-4-{4-[(2,3-dihydro-1H-indol-1-ylamino)carbonyl]phenyl}-2-(4-fluorobenzyl)-5-oxo-7,8,9,9a-tetrahydro-5H-pyrido[2,3-α]pyrrolizine-3-carboxylate]: the EC50 lay within 10 to 100 nM.

On to `CCOC(=O)c1c(CCc2ccc(F)cc2)nc2c(c1-c1cc(Br)cs1)C(=O)N1CCC[C@@H]21` [Example 56, Ethyl (9aS)-4-(4-bromo-2-thienyl)-2-[2-(4-fluorophenyl)ethyl]-5-oxo-7,8,9,9a-tetrahydro-5H-pyrido[2,3-α]pyrrolizine-3-carboxylate], for which the EC50 lay in the range of 100 to 1000 nM.

As for `O=C(N[C@@H]1CCc2ccccc21)c1ccc2c(c1)[nH]c(=O)c1c(Cc3ccc(F)cc3)nc3c(c12)C(=O)N1CCC[C@@H]31` [Example 58, (8bS)-N-[(1R)-2,3-dihydro-1H-inden-1-yl]-7-(4-fluorobenzyl)-6,13-dioxo-5,8b,9,10,11,13-hexahydro-6H-benzo[c]pyrroizino[2,1-f][2,7]naphthyridine-3-carboxamide], the EC50 was in the range of 100 to 1000 nM.

Turning to `O=C(N[C@@H]1CCc2ccccc21)c1ccc2c(c1)[nH]c(=O)c1c(CCc3ccc(F)cc3)nc3c(c12)C(=O)N1CCC[C@@H]31` [Example 59, (8bS)-N-[(1R)-2,3-dihydro-1H-inden-1-yl]-7-[2-(4-fluorophenyl)ethyl]-6,13-dioxo-5,8b,9,10,11,13-hexahydro-6H-benzo[c]pyrrolizino[2,1-f][2,7]naphthyridine-3-carboxamide], the concentration giving a half-maximal response (EC50) is at most 10 nM.

For `CCOC(=O)C1=C(Cc2ccc(F)cc2)Nc2c(c(=O)n3n2CCC3)C1c1ccc(C(=O)N[C@@H]2CCc3ccccc32)cc1` (stereo partly drawn) [Example 60, Ethyl 4-(4-{[(1R)-2,3-dihydro-1H-inden-1-ylamino]carbonyl}phenyl)-2-(4-fluorobenzyl)-5-oxo-1,5,8,9-tetrahydro-4H,7H-pyrazolo[1′,2′:1,2]pyrazolo[3,4-b]pyridine-3-carboxylate], the EC50 was in the range of 100 to 1000 nM.

For the compound `CCOC(=O)C1=C(CCc2ccc(C(F)(F)F)cc2)Nc2c(c(=O)n3n2CCC3)C1c1ccc(C(=O)N[C@@H]2CCc3ccccc32)cc1` (stereo partly drawn) [Example 61, Ethyl 4-(4-{[(1R)-2,3-dihydro-1H-inden-1-ylamino]carbonyl}phenyl)-5-oxo-2-{2-[4-(trifluoromethyl)phenyl]ethyl}-1,5,8,9-tetrahydro-4H,7H-pyrazolo[1′,2′:1,2]pyrazolo[3,4-b]pyridine-3-carboxylate], the EC50 lay within 10 to 100 nM.

On to “Ethyl (9aS)-4-(4-{[(2-furylmethyl)amino]carbonyl}phenyl)-5-oxo-2-[2-(3-pyridinyl)ethyl]-7,8,9,9a-tetrahydro-5H-pyrido[2,3-α]pyrrolizine-3-carboxylate [Example 33]”, for which the EC50 was 10 to 100 nM.

With “Ethyl (9aS)-4-(4-{[(2-furylmethyl)amino]carbonyl}phenyl)-5-oxo-2-{2-[4-(trifluoromethyl)phenyl]ethyl}-7,8,9,9a-tetrahydro-5H-pyrido[2,3-α]pyrrolizine-3-carboxylate-N-oxide [Example 38]”, the EC50 lay in the range of 100 to 1000 nM.

With “Ethyl (9αS)-4-{4-[(benzylamino)carbonyl]phenyl}-5-oxo-2-{2-[4-(trifluoro-methyl)phenyl]ethyl}-9,9a-dihydro-5H-[1,3]oxazolo[3′,4′:1,2]pyrrolo[3,4-b]pyridine-3-carboxylate [Example 36]”, the concentration for a half-maximal effect (EC50) lay in the range of 10 to 100 nM.

Take “Ethyl(9aS)-4-[3-({[2-(2-furyl)ethyl]amino}carbonyl)phenyl]-5-oxo-2-{2-[4-(trifluoromethyl)phenyl]ethyl}-7,8,9,9a-tetrahydro-5H-pyrido[2,3-a]pyrrolizine-3-carboxylate [Example 13]”: the EC50 is at least 1000 nM.
